Test results published in patent US8399510B2, “Method of activating NK cells” (University of South Florida, priority 2007, dated 2013).

Key:
SHP1 = SHP1 (Homo sapiens, UniProt P29350); assay: PTP inhibition assay (DiFMUP substrate), SHP1; format: biochemical
Protocol: (§1) PTP activity was measured using the fluorogenic 6,8-difluoro-4-methylumbelliferyl phosphate (DiFMUP; Invitrogen, Carlsbad, Calif.) as the substrate. Each reaction contained 25 mM HEPES, 50 mM NaCl, 0.05% Triton, 1 mM dithiothreitol, 20 μM DiFMUP, 10 nM Microcystin LR, 20 nM GST-PTP, and 10 μl of test compound or dimethyl sulfoxide (solvent) in a total reaction volume of 100 μl in black 96-well plates. Reaction was initiated by addition of DiFMUP, and the incubation time was 30 min at room temperature. DiFMUP fluorescence signal was measured at an excitation of 355 nm and an emission of 460 nm with a plate reader (Victor2 1420; PerkinElmer Wallac, Gaithersburg, Md.). IC50 was defined as the concentration of an inhibitor that caused a 50% decrease in the PTP activity. For IC50 determination, eight concentrations of NSC119910 at one-third dilution (˜0.5 log) were tested. The ranges of NSC119910 concentrations used in each PTP assay were determined from preliminary trials. Each experiment was performed either in triplicate or duplicate, and IC50 data were derived from at least two independent experiments. The curve-fitting program Prism 4 (GraphPad Software, San Diego, Calif.) was used to calculate IC50 values.

SHP2 = molecular target: T1, SHP2 (Homo sapiens, UniProt Q06124); assay: PTP inhibition assay (DiFMUP substrate), SHP2; format: biochemical; conditions: in vitro phosphatase activity, versus PTP1b
T1 sequence (Q06124 1-593): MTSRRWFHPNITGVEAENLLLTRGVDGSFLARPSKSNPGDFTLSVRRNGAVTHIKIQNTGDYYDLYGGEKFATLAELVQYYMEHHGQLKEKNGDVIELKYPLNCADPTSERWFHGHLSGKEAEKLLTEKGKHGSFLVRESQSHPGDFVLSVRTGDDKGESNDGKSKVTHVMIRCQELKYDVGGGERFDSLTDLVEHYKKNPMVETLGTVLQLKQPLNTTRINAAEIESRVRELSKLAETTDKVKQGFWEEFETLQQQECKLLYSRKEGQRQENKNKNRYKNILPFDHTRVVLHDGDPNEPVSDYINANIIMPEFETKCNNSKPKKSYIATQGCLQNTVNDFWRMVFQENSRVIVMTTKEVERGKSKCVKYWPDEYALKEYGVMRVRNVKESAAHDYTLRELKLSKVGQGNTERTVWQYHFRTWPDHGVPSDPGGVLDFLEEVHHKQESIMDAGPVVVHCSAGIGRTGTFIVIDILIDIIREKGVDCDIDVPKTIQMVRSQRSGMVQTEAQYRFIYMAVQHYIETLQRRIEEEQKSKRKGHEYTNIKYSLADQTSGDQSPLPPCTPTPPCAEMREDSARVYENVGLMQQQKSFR
Protocol: as §1

SHIP−/− LAK cells = assay: 4 hour 51Cr release cytolysis assay with SHIP−/− LAK cells; format: cell-based
Protocol: (§2) NK cells were magnetically enriched from whole splenocytes using the Miltenyi mouse NK cell enrichment kit and an Automac (Miltenyi) per the manufacturer's instructions. Magnetically enriched cells were plated at 2×10^6 cells/mL in the presence of 2000 units/mL human rIL-2 (Proleukin). Non-adherent cells were removed on day 2 and media replaced as necessary. On day 7 a standard 4 hour chromium release assay was performed. Briefly, target cells were loaded with 100 μCi of 51Cr per 1×10^6 cells for 60 minutes at 37° C. The target and lymphokine activate killer (LAK) 3 cells were then incubated together at 37° C. for 4 hours in the presence of inhibitors or media alone. Supernatants were collected and measured for radioactivity on a gamma counter (Perkin Elmer Wizard1470).
(§3) All experiments using sodium orthovanadate (NaOV) were performed with 100 μM activated NaOV. NaOV was activated by adjusting the pH of a 200 mM stock to pH 10.0 by the addition NaOH or HCl followed by boiling until the solution becomes colorless and then cooling to room temperature. This process is then repeated until the pH of the NaOV stabilizes at 10.0 (44). NaOV was added to the wells of the killing assay with the LAK cells 15 to 30 min prior to adding target cells at room temperature. NSC119910 was obtained from the Drug Synthesis and Chemistry Branch, Developmental Therapeutics Program, Division of Cancer Treatment and Diagnosis, NCI. The structure of NSC119910 was confirmed by proton NMR using a Varian Mercury-Plus, Oxford AS400 spectrometer. The 1H NMR spectrum was recorded at 400 MHz using DMSO-d6 as solvent and tetramethylsilane (TMS) as an internal standard. Chemical shift values are reported in parts per million (δ). […] 25 times this IC50 was established as the effective dose for NK cell based assays. NSC119910 was added immediately before the addition of target cells on ice. Both compounds were tested at their working concentration for the ability to kill and/or lyse the target cells without LAK cells being present.
Given the inappropriate degree of SHP1 recruitment to 2B4 in SHIP^−/− NK cells, the possibility of using chemical inhibitors to block its tyrosine phosphatase activity was explored to determine if this could restore killing of complex targets by SHIP-deficient NK cells. Standard four-hour 51Cr release assays were performed with SHIP^−/− (−/−) or WT (+/+) LAK cells, with a ratio of 30:1 and 3000 target cells for all conditions. NaOV (100 μM) was used first, a broadly acting tyrosine phosphatase inhibitor to counteract the effects of the SHP1 over-recruitment to 2B4, with a medium-only negative control. […] In fact, SHIP-deficient NK cytolysis of RMA parental targets exceeds that of WT LAK cells. This supernormal killing has been consistently observed against RMA targets in three separate studies with NaOV-treated SHIP^−/− LAK cells. This finding indicates phosphatase inhibition can restore the ability of SHIP^−/− NK cells to kill complex targets via NKG2D, while also expanding the capacity of SHIP-deficient NK cells to kill tumor cells in the absence of ligands for NKG2D.
Next, the ability of NSC119910 to restore killing in the SHIP^−/− NK cell was tested. The effective in vitro dose at which NSC119910 was able to restore SHIP^−/− cytotoxicity was determined in a dose titration experiment. Through this, 67.32 μM was identified as the effective dose (data not shown). This concentration of 67.32 μM of NSC119910 was used for all subsequent standard 4-hour 51Cr release assays, performed with SHIP^−/− (^−/−) or WT (^+/+) LAK cells and using a ratio of 30:1 and 3000 target cells in the presence of 67.32 μM NCI119910 or media alone (−). […] The experiments were repeated, using M157+ BaF3 transfectants were used as targets (FIG. 5D). SHIP^−/− (^−−) or WT (^++) cells were incubated with 67.32 μM NSC119910 (119910) or media alone (CNT) for 4 hours. The cells were then stained for NK1.1, TCR-β and NKG2D and analyzed for NKG2D expression. […]

WT LAK cells = assay: 4 hour 51Cr release cytolysis assay with WT LAK cells; format: cell-based, mouse
Protocol: as §2, §3
Given the inappropriate degree of SHP1 recruitment to 2B4 in SHIP^−/− NK cells, the possibility of using chemical inhibitors to block its tyrosine phosphatase activity was explored to determine if this could restore killing of complex targets by SHIP-deficient NK cells. Standard four-hour 51Cr release assays were performed with SHIP^−/− (−/−) or WT (+/+) LAK cells, with a ratio of 30:1 and 3000 target cells for all conditions. […]
Next, the ability of NSC119910 to restore killing in the SHIP^−/− NK cell was tested. The effective in vitro dose at which NSC119910 was able to restore SHIP^−/− cytotoxicity was determined in a dose titration experiment. […] The cells were then stained for NK1.1, TCR-β and NKG2D and analyzed for NKG2D expression. […]

NKG2D = NKG2D expression on LAK cells (staining for NK1.1, TCR-β, NKG2D); format: cell-based, mouse; conditions: 67.32 μM NSC119910, 4 hours; SHIP−/− or WT cells
Protocol: Next, the ability of NSC119910 to restore killing in the SHIP^−/− NK cell was tested. The effective in vitro dose at which NSC119910 was able to restore SHIP^−/− cytotoxicity was determined in a dose titration experiment. Through this, 67.32 μM was identified as the effective dose (data not shown). This concentration of 67.32 μM of NSC119910 was used for all subsequent standard 4-hour 51Cr release assays, performed with SHIP^−/− (^−/−) or WT (^+/+) LAK cells and using a ratio of 30:1 and 3000 target cells in the presence of 67.32 μM NCI119910 or media alone (−). […] The experiments were repeated, using M157+ BaF3 transfectants were used as targets (FIG. 5D). SHIP^−/− (^−−) or WT (^++) cells were incubated with 67.32 μM NSC119910 (119910) or media alone (CNT) for 4 hours. The cells were then stained for NK1.1, TCR-β and NKG2D and analyzed for NKG2D expression. The addition of NSC119910 to LAK cells had no effect on the expression levels of NKG2D (FIG. 5E). The experiments were also performed with m157^+ BaF3 targets. […] Although the increase is not as dramatic as observed with NKG2D mediated cytolysis, this increase has been observed consistently in multiple cytolysis assays with the m157^+ BaF3 targets. […]

[1] = 67.32 μM NSC119910, ratio 30:1, 3000 target cells
[2] = 100 μM NaOV, ratio 30:1, 3000 target cells

SHP1, sequence (P29350 whole entry): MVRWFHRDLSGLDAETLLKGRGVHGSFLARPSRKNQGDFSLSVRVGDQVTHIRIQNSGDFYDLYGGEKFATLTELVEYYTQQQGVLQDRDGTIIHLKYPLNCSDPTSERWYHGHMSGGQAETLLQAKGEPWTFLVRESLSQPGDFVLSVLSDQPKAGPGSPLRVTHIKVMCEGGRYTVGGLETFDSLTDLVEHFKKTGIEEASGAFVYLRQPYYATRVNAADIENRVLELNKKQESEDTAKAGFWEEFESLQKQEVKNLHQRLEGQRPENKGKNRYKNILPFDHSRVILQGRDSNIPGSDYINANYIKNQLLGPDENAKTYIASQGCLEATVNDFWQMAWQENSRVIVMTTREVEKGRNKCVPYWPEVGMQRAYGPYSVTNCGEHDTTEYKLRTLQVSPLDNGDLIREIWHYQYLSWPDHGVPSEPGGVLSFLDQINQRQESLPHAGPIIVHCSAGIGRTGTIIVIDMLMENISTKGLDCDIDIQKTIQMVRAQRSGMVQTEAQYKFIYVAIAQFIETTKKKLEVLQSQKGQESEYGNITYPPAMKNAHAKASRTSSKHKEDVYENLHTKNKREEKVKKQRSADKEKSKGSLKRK

SMILES | selectivity to SHP1 over PTP1b (SHP1; in vitro phosphatase activity, versus PTP1b) | IC50 (SHP1; purified SHP1, read-out: cell free, in vitro IC50 using purified SHP1) [µM] | selectivity to SHP2 over PTP1b (SHP2) | killing of m157+ BaF3 targets by SHIP−/− NK cells (SHIP−/− LAK cells; 67.32 μM NSC119910) | killing of Rae1+ RMA targets by SHIP−/− NK cells (SHIP−/− LAK cells; [1]) | killing of parental RMA targets by SHIP−/− NK cells (SHIP−/− LAK cells; [1]) | effective in vitro dose restoring SHIP−/− cytotoxicity (SHIP−/− LAK cells; dose titration experiment (data not shown)) [µM] | cytolytic activity of WT NK cells against Rae1+ targets (WT LAK cells; [1]) | killing of m157+ cells by WT LAK cells (WT LAK cells; NSC119910, compared with the increase seen with NaOV) | killing of RMA cells by WT NK cells (WT LAK cells; in the presence of NSC119910) | expression levels of NKG2D on LAK cells (NKG2D) | killing of m157+ BaF3 targets by SHIP−/− NK cells (SHIP−/− LAK cells; 100 μM NaOV) | killing of parental BaF3 targets by SHIP−/− NK cells (SHIP−/− LAK cells; 100 μM NaOV) | killing of RMA parental targets by SHIP−/− LAK cells (SHIP−/− LAK cells; [2]) | killing of Rae1+ RMA targets by SHIP−/− LAK cells (SHIP−/− LAK cells; [2]) | killing of RMA or RMA-Rae1+ targets by WT LAK cells (WT LAK cells; [2])
O=C(O)C1CCCCC1c1c2ccc(=O)c(O)c-2oc2c(O)c(O)ccc12 (stereo not shown) [NSC119910] | approximately 10 fold | 2.7 | approximately 100 fold | increased | significantly restored killing | significantly restored killing | 67.32 | no effect | the same increase of killing of m157^+ cells by WT LAK cells was not seen | increase | no effect | – | – | – | – | –
[Na+].[Na+].[Na+].[O]=[V]([O-])([O-])[O-] [NaOV, Sodium orthovanadate, reference compound] | – | – | – | – | – | – | – | – | – | – | – | able to increase the capacity | able to increase the capacity | increased the capacity | restore cellular ability to mediate efficient killing | increased killing by WT LAK cells was not seen
